Test results: patent publication US20160313301A1, “METHOD FOR PREDICTING ANTITUMOR EFFICACY OF HSP90 INHIBITOR IN CANCER TREATMENT” (NIPPON KAYAKU KABUSHIKI KAISHA, priority 2013, published 2016)

Assays:
Type in all cases: in vivo
[1] = system: human ovarian cancer cells OV-90; assay: Anti-tumor test in mice transplanted subcutaneously with tumor (OV-90); settings: OV-90 s.c. in mice
Experimental: (§1) Human ovarian cancer cell lines OC-10-JCK, OC-11-JCK, and TOGY-18, and a human breast cancer cell line MC-19-JCK were obtained from Central Institute for Experimental Animals. Cryopreserved tumor pieces were thawed, and then OC-10-JCK, OC-11-JCK, and MC-19-JCK were transplanted subcutaneously to SCID mice, while TOGY-18 was transplanted subcutaneously to nude mice. After the tumors were grown, the tumors were removed and cut into tumor pieces. The tumor pieces were transplanted subcutaneously to SCID mice or nude mice with trocars. The tumors were maintained by repeated transplantation in the same manner as described above to prepare tumors to be transplanted. Human ovarian cancer cell lines ES-2, SK-OV-3, OV-90, and TOV-21G, and a human lung cancer cell line NCI-H1975 were obtained from American Type Culture Collection (ATCC). The SK-OV-3 and NCI-H1975 cell lines were grown in recommended culture media, of which about 1×10^7 cells were suspended into HBSS and then injected subcutaneously to SCID mice. After the cells formed tumors, the tumors were removed and cut into tumor pieces. The tumor pieces were transplanted subcutaneously to SCID mice with trocars. The tumors were maintained by repeated transplantation in the same manner as described above to prepare tumors to be transplanted. […]

[2] = system: human ovarian cancer cells OC-11-JCK/CDDP; assay: Anti-tumor test in mice transplanted subcutaneously with tumor (OC-11-JCK/CDDP); settings: OC-11-JCK/CDDP s.c. in mice; 40 mg/kg tail vein three times at 4 day intervals
Experimental: as §1

[3] = system: human ovarian cancer cells SK-OV-3; assay: Anti-tumor test in mice transplanted subcutaneously with tumor (SK-OV-3); settings: SK-OV-3 s.c. in mice
Experimental: as §1

[4] = 40 mg/kg tail vein three times at 4 day intervals

With `CC(C)c1cc(-c2n[nH]c(=O)n2-c2ccc(CN3CCN(C)CC3)cc2)c(O)cc1O` [A-1, 5-(2,4-dihydroxy-5-isopropyl-phenyl)-4-[4-(4-methyl-piperazin-1-ylmethyl)-phenyl]-2,4-dihydro-[1,2,4]triazol-3-one] the “anti-tumor effect (in words)” value [1] was “relatively highly effective”, the “T/C % (lowest value from the beginning to the 21st day of administration)” value [1, 4] was 30.4% and the “T/C % (lowest value from the beginning to the 21st day of administration)” value [2] was 46.4%. For the same compound, the “anti-tumor effect (in words)” value [3] was “relatively highly effective” and the “T/C % (lowest value from the beginning to the 21st day of administration)” value [3, 4] was 3.0%.
